Legend:
Assay in all cases: relative viability (nuclei count vs DMSO), 5 days (fraction); higher = more cells survive
NCI-H1355 = test system: NCI-H1355
How it was run: (§1)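 Lung cancer cell lines were pin-tool dosed in 1536-well plates on the day after seeding, with either a lone drug or a fixed anchor-drug dose plus five library-drug doses (not always all listed) in √10 steps. Nuclei were counted on 4× images after 5 days. Relative viability is the ratio of treated-well to vehicle-well nuclei counts, with each value a median of duplicate plates.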

LK-2 = test system: LK-2
How it was run: as §1

NCI-H1944 = test system: NCI-H1944
How it was run: as §1

PC-3 [JPC-3] = test system: PC-3 [JPC-3]
How it was run: as §1

NCI-H838 = test system: NCI-H838
How it was run: as §1

NCI-H650 = test system: NCI-H650
How it was run: as §1

NCI-H661 = test system: NCI-H661
How it was run: as §1

ChaGo-K-1 = test system: ChaGo-K-1
How it was run: as §1

BEN = test system: BEN
How it was run: as §1

NCI-H1975 = test system: NCI-H1975
How it was run: as §1

LU99A = test system: LU99A
How it was run: as §1

LXF-289 = test system: LXF-289
How it was run: as §1

NCI-H2342 = test system: NCI-H2342
How it was run: as §1

NCI-H2087 = test system: NCI-H2087
How it was run: as §1

LC-2-ad = test system: LC-2-ad
How it was run: as §1

SK-MES-1 = test system: SK-MES-1
How it was run: as §1

NCI-H1651 = test system: NCI-H1651
How it was run: as §1

NCI-H596 = test system: NCI-H596
How it was run: as §1

NCI-H1666 = test system: NCI-H1666
How it was run: as §1

LCLC-97TM1 = test system: LCLC-97TM1
How it was run: as §1

HCC-78 = test system: HCC-78
How it was run: as §1

NCI-H358 = test system: NCI-H358
How it was run: as §1

Cc1sc2c(c1C)C(c1ccc(Cl)cc1)=N[C@@H](CC(=O)OC(C)(C)C)c1nnc(C)n1-2 [JQ1] + COc1cccc2cc(-c3nc([C@H]4CC[C@H](C(=O)O)CC4)n4ncnc(N)c34)[nH]c12 [OSI-027] (partner 0.5 µM)
relative viability (NCI-H1355; first compound 0.04 µM): 0.429
relative viability (NCI-H1355; first compound 0.1265 µM): 0.374
relative viability (NCI-H1355; first compound 0.4 µM): 0.42
relative viability (NCI-H1355; first compound 1.265 µM): 0.25
relative viability (NCI-H1355; first compound 4 µM): 0.253
relative viability (LK-2; first compound 0.04 µM): 0.204
relative viability (LK-2; first compound 0.1265 µM): 0.21
relative viability (LK-2; first compound 0.4 µM): 0.188
relative viability (LK-2; first compound 1.265 µM): 0.122
relative viability (LK-2; first compound 4 µM): 0.143
relative viability (NCI-H1944; first compound 0.04 µM): 0.39
relative viability (NCI-H1944; first compound 0.1265 µM): 0.364
relative viability (NCI-H1944; first compound 0.4 µM): 0.375
relative viability (NCI-H1944; first compound 1.265 µM): 0.227
relative viability (NCI-H1944; first compound 4 µM): 0.25
relative viability (PC-3 [JPC-3]; first compound 0.04 µM): 0.771
relative viability (PC-3 [JPC-3]; first compound 0.1265 µM): 0.823
relative viability (PC-3 [JPC-3]; first compound 0.4 µM): 0.739
relative viability (PC-3 [JPC-3]; first compound 1.265 µM): 0.653
relative viability (PC-3 [JPC-3]; first compound 4 µM): 0.445
relative viability (NCI-H838; first compound 0.04 µM): 0.379
relative viability (NCI-H838; first compound 0.1265 µM): 0.369
relative viability (NCI-H838; first compound 0.4 µM): 0.433
relative viability (NCI-H838; first compound 1.265 µM): 0.251
relative viability (NCI-H838; first compound 4 µM): 0.21
relative viability (NCI-H650; first compound 0.04 µM): 0.584
relative viability (NCI-H650; first compound 0.1265 µM): 0.41
relative viability (NCI-H650; first compound 0.4 µM): 0.415
relative viability (NCI-H650; first compound 1.265 µM): 0.25
relative viability (NCI-H650; first compound 4 µM): 0.192
relative viability (NCI-H661; first compound 0.04 µM): 0.714
relative viability (NCI-H661; first compound 0.1265 µM): 0.517
relative viability (NCI-H661; first compound 0.4 µM): 0.603
relative viability (NCI-H661; first compound 1.265 µM): 0.423
relative viability (NCI-H661; first compound 4 µM): 0.453
relative viability (ChaGo-K-1; first compound 0.04 µM): 0.564
relative viability (ChaGo-K-1; first compound 0.1265 µM): 0.519
relative viability (ChaGo-K-1; first compound 0.4 µM): 0.472
relative viability (ChaGo-K-1; first compound 1.265 µM): 0.345
relative viability (ChaGo-K-1; first compound 4 µM): 0.28
relative viability (BEN; first compound 0.04 µM): 0.282
relative viability (BEN; first compound 0.1265 µM): 0.286
relative viability (BEN; first compound 0.4 µM): 0.335
relative viability (BEN; first compound 1.265 µM): 0.252
relative viability (BEN; first compound 4 µM): 0.2
relative viability (NCI-H1975; first compound 0.04 µM): 0.708
relative viability (NCI-H1975; first compound 0.1265 µM): 0.527
relative viability (NCI-H1975; first compound 0.4 µM): 0.62
relative viability (NCI-H1975; first compound 1.265 µM): 0.437
relative viability (NCI-H1975; first compound 4 µM): 0.393
relative viability (LU99A; first compound 0.04 µM): 0.299
relative viability (LU99A; first compound 0.1265 µM): 0.268
relative viability (LU99A; first compound 0.4 µM): 0.316
relative viability (LU99A; first compound 1.265 µM): 0.234
relative viability (LU99A; first compound 4 µM): 0.209
relative viability (LXF-289; first compound 0.04 µM): 0.803
relative viability (LXF-289; first compound 0.1265 µM): 0.695
relative viability (LXF-289; first compound 0.4 µM): 0.614
relative viability (LXF-289; first compound 1.265 µM): 0.297
relative viability (LXF-289; first compound 4 µM): 0.173
relative viability (NCI-H2342; first compound 0.04 µM): 0.695
relative viability (NCI-H2342; first compound 0.1265 µM): 0.605
relative viability (NCI-H2342; first compound 0.4 µM): 0.702
relative viability (NCI-H2342; first compound 1.265 µM): 0.681
relative viability (NCI-H2342; first compound 4 µM): 0.52
relative viability (NCI-H2087; first compound 0.04 µM): 0.586
relative viability (NCI-H2087; first compound 0.1265 µM): 0.643
relative viability (NCI-H2087; first compound 0.4 µM): 0.699
relative viability (NCI-H2087; first compound 1.265 µM): 0.302
relative viability (NCI-H2087; first compound 4 µM): 0.301
relative viability (LC-2-ad; first compound 0.04 µM): 0.77
relative viability (LC-2-ad; first compound 0.1265 µM): 0.543
relative viability (LC-2-ad; first compound 0.4 µM): 0.62
relative viability (LC-2-ad; first compound 1.265 µM): 0.366
relative viability (LC-2-ad; first compound 4 µM): 0.302
relative viability (SK-MES-1; first compound 0.04 µM): 0.614
relative viability (SK-MES-1; first compound 0.1265 µM): 0.497
relative viability (SK-MES-1; first compound 0.4 µM): 0.379
relative viability (SK-MES-1; first compound 1.265 µM): 0.157
relative viability (SK-MES-1; first compound 4 µM): 0.158
relative viability (NCI-H1651; first compound 0.04 µM): 0.624
relative viability (NCI-H1651; first compound 0.1265 µM): 0.638
relative viability (NCI-H1651; first compound 0.4 µM): 0.591
relative viability (NCI-H1651; first compound 1.265 µM): 0.391
relative viability (NCI-H1651; first compound 4 µM): 0.407
relative viability (NCI-H596; first compound 0.04 µM): 0.809
relative viability (NCI-H596; first compound 0.1265 µM): 0.892
relative viability (NCI-H596; first compound 0.4 µM): 0.539
relative viability (NCI-H596; first compound 1.265 µM): 0.334
relative viability (NCI-H596; first compound 4 µM): 0.283
relative viability (NCI-H1666; first compound 0.04 µM): 0.761
relative viability (NCI-H1666; first compound 0.1265 µM): 0.901
relative viability (NCI-H1666; first compound 0.4 µM): 0.726
relative viability (NCI-H1666; first compound 1.265 µM): 0.581
relative viability (NCI-H1666; first compound 4 µM): 0.789
relative viability (LCLC-97TM1; first compound 0.04 µM): 0.476
relative viability (LCLC-97TM1; first compound 0.1265 µM): 0.674
relative viability (LCLC-97TM1; first compound 0.4 µM): 0.594
relative viability (LCLC-97TM1; first compound 1.265 µM): 0.4
relative viability (LCLC-97TM1; first compound 4 µM): 0.199
relative viability (HCC-78; first compound 0.04 µM): 0.389
relative viability (HCC-78; first compound 0.1265 µM): 0.47
relative viability (HCC-78; first compound 0.4 µM): 0.387
relative viability (HCC-78; first compound 1.265 µM): 0.335
relative viability (HCC-78; first compound 4 µM): 0.296
relative viability (NCI-H358; first compound 0.04 µM): 0.705
relative viability (NCI-H358; first compound 0.1265 µM): 0.796
relative viability (NCI-H358; first compound 0.4 µM): 0.748
relative viability (NCI-H358; first compound 1.265 µM): 0.47
relative viability (NCI-H358; first compound 4 µM): 0.461

— the supplement of paper PMC10307832
